pEC50: −log10 of the molar value.
biological target: T1, human mGluR4 (Homo sapiens, UniProt Q14833); assay: Potentiation of human mGluR4 in transfected CHO cells, Ca2+-sensitive fluorescent dye, EC20 agonist; assay type: cell-based; conditions: values in E-notation, unit inferred, read-out: hEC50
T1 construct: expressed in transfected cells; host or cells: Chinese Hamster Ovary (CHO) cells
Experimental: The disclosed compounds and compositions can be evaluated for their ability to act as a potentiator of metabotropic glutamate receptor activity, in particular mGluR4 activity, by any suitable known methodology known in the art. For example, Chinese Hamster Ovary (CHO) cells transfected with human mGluR4 or HEK cells co-transfected with rat mGluR4 and the G-protein regulated Inwardly Rectifying Potassium channel (GIRK) were plated in clear bottom assay plates for assay in a Hamamatsu FDSS Fluorometric Plate Reader. The cells were loaded with either a Ca2+-sensitive fluorescent dye or the thallium responsive dye and the plates were washed and placed into a suitable kinetic plate reader. For human mGluR4 assays, a fluorescence baseline was established for 3-5 seconds, the disclosed compounds were then added to the cells, and the response in cells was measured. Approximately two and a half minutes later, a concentration of mGluR4 orthosteric agonist (e.g. glutamate or L-AP4) eliciting approximately 20% (EC20) of the maximal agonist response was added to the cells, and the response was measured. Two minutes later, a concentration of mGluR4 agonist (e.g. glutamate or L-AP4) eliciting 80% (EC80) of the maximal agonist response was added to the cells, and the response was measured. For rat mGluR4/GIRK experiments, a baseline was established for approximately five seconds, disclosed compounds were added, and either an EC20 or EC80 concentration of agonist was added approximately two and one half minutes later.
The above described assay operated in two modes. In the first mode, a range of concentrations of the disclosed compounds are added to cells, followed by a single fixed concentration of agonist. If the compound acts as a potentiatior, an EC50 value for potentiation and a maximum extent of potentiation by the compound at this concentration of agonist is determined by non-linear curve fitting. If the compound acts as a noncompetitive antagonist, an IC50 value is determined by non-linear curve fitting. In the second mode, several fixed concentrations of the disclosed compounds are added to various wells on a plate, followed by a range in concentrations of agonist for each concentration of disclosed compound. The EC50 values for the agonist at each concentration of compound are determined by non-linear curve fitting. A decrease in the EC50 value of the agonist with increasing concentrations of the sample compound (a leftward shift of the agonist concentration-response curve) is an indication of the degree of mGluR4 potentiation at a given concentration of the sample compound. A decrease in the maximal response of the agonist with increasing concentrations of the sample compounds, with or without a rightward shift in agonist potency, is an indication of the degree of noncompetitive antagonism at mGluR4. The second mode also indicates whether the sample compounds also affect the maximum response to mGluR4 to agonists.

T1 sequence (Q14833 33-912): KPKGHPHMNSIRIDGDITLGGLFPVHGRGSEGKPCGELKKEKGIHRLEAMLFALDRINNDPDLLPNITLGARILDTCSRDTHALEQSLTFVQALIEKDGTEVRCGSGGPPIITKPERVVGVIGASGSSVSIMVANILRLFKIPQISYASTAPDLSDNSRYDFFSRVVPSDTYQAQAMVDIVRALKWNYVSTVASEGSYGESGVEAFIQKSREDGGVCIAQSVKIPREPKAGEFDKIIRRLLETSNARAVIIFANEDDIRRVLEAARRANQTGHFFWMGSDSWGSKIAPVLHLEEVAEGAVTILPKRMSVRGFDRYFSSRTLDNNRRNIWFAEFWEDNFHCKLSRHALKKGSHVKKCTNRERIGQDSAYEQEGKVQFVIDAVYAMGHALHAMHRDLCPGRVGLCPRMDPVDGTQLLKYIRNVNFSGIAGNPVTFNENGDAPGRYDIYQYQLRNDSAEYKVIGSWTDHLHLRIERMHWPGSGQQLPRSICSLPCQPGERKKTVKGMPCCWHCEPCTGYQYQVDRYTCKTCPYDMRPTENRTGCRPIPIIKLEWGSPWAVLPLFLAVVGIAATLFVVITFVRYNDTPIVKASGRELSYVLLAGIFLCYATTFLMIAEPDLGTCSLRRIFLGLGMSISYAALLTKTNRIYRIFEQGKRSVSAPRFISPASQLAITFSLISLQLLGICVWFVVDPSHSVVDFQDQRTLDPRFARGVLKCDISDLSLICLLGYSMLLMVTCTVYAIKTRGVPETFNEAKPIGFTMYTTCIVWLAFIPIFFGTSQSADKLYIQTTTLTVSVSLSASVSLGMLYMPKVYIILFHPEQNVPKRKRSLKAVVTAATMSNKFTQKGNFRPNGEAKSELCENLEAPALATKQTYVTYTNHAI

Row | pEC50 | Structure (SMILES)
1 | 6.48 | O=S(=O)(Cc1ccccc1F)c1ccc2[nH]c(-c3ccccn3)nc2c1 [Example 4, 5-((2-fluorobenzyl)sulfonyl)-2-(pyridin-2-yl)-1H-benzo[d]imidazole]
2 | 6.35 | O=S(=O)(Cc1ccc(Cl)cc1F)c1cc2nc(-c3ccccn3)[nH]c2cc1Cl [Example 26, 6-chloro-5-((4-chloro-2-fluorobenzyl)sulfonyl)-2-(pyridin-2-yl)-1H-benzo[d]imidazole]
3 | 7.25 | O=S(=O)(Cc1ccc(Cl)cc1Cl)c1ccc2[nH]c(-c3ccccn3)nc2c1 [Example 6, 5-((2,4-dichlorobenzyl)sulfonyl)-2-(pyridin-2-yl)-1H-benzo[d]imidazole]
4 | 6.38 | O=S(=O)(Cc1ccccc1Cl)c1ccc2[nH]c(-c3ccccn3)nc2c1 [Example 2, 5-(2-Chlorobenzylsulfonyl)-2-(pyridin-2-yl)-1H-benzo[d]imidazole]
5 | 6.68 | O=S(=O)(Cc1ccc(F)cc1F)c1ccc2[nH]c(-c3ccccn3)nc2c1 [Example 8, 5-((2,4-difluorobenzyl)sulfonyl)-2-(pyridin-2-yl)-1H-benzo[d]imidazole]
6 | 5.84 | O=S(=O)(Cc1ccccc1Cl)c1ccc2[nH]c(-c3nccs3)nc2c1 [Example 12, 2-(5-((2-chlorobenzyl)sulfonyl)-1H-benzo[d]imidazol-2-yl)thiazole]
7 | 7.12 | O=S(=O)(Cc1ccccc1Cl)c1ccc2[nH]c(-c3cccc(Cl)n3)nc2c1 [Example 11, 5-((2-chlorobenzyl)sulfonyl)-2-(6-chloropyridin-2-yl)-1H-benzo[d]imidazole]
8 | 5.61 | Clc1ccccc1CSc1ccc2[nH]c(-c3ccccn3)nc2c1 [Example 1, 5-(2-Chlorobenzylthio)-2-(pyridin-2-yl)-1H-benzo[d]imidazole]
9 | 5.74 | O=S(=O)(Cc1ccccc1Cl)c1ccc2[nH]c(-c3cscn3)nc2c1 [Example 13, 4-(5-((2-chlorobenzyl)sulfonyl)-1H-benzo[d]imidazol-2-yl)thiazole]
10 | 6.81 | O=S(=O)(Cc1c(F)cccc1F)c1ccc2[nH]c(-c3ccccn3)nc2c1 [Example 9, 5-((2,6-difluorobenzyl)sulfonyl)-2-(pyridin-2-yl)-1H-benzo[d]imidazole]
11 | 6.46 | O=S(=O)(Cc1ccccc1Cl)c1cc2nc(-c3ccccn3)[nH]c2cc1Cl [Example 5, 6-chloro-5-((2-chlorobenzyl)sulfonyl)-2-(pyridin-2-yl)-1H-benzo[d]imidazole]
12 | 6.34 | O=S(=O)(Cc1cc(F)c(F)cc1F)c1ccc2[nH]c(-c3ccccn3)nc2c1 [Example 10, 2-(pyridin-2-yl)-5-((2,4,5-trifluorobenzyl)sulfonyl)-1H-benzo[d]imidazole]
13 | 6.36 | O=S(=O)(Cc1cc(F)ccc1F)c1ccc2[nH]c(-c3ccccn3)nc2c1 [Example 7, 5-((2,5-difluorobenzyl)sulfonyl)-2-(pyridin-2-yl)-1H-benzo[d]imidazole]
14 | 5.61 | Fc1ccccc1CSc1ccc2[nH]c(-c3ccccn3)nc2c1 [Example 3, 5-((2-fluorobenzyl)thio)-2-(pyridin-2-yl)-1H-benzo[d]imidazole]
15 | 6.37 | O=C(Nc1ccc(S(=O)(=O)Cc2ccccc2Cl)cc1)c1ccco1 [Example 28, N-(4-((2-chlorobenzyl)sulfonyl)phenyl)furan-2-carboxamide]
16 | 6.66 | O=S(=O)(Cc1ccccc1Cl)c1ccc2[nH]c(-c3ncccc3F)nc2c1 [Example 16, 5-((2-chlorobenzyl)sulfonyl)-2-(3-fluoropyridin-2-yl)-1H-benzo[d]imidazole]
17 | 6.14 | O=C(Nc1ccc(S(=O)(=O)Cc2ccccc2Cl)cc1)c1ncccc1F [Example 31, N-(4-((2-chlorobenzyl)sulfonyl)phenyl)-3-fluoropicolinamide]
18 | 5.97 | O=S(=O)(Cc1cccc(Cl)c1F)c1ccc2[nH]c(-c3cccc[n+]3O)nc2c1 [Example 20, 2-(5-((3-chloro-2-fluorobenzyl)sulfonyl)-1H-benzo[d]imidazol-2-yl)-1-hydroxypyridin-1-ium]
19 | 5.96 | O=C(Nc1ccc(S(=O)(=O)Cc2ccccc2Cl)cc1)c1cccc(Cl)n1 [Example 30, 6-chloro-N-(4-((2-chlorobenzyl)sulfonyl)phenyl)picolinamide]
20 | 6.03 | O=S(=O)(Cc1ccccc1Cl)c1ccc2[nH]c(-c3cccc(F)n3)nc2c1 [Example 15, 5-((2-chlorobenzyl)sulfonyl)-2-(6-fluoropyridin-2-yl)-1H-benzo[d]imidazole]
21 | 6.47 | O=S(=O)(Cc1ccccc1Cl)c1cc2nc(-c3ccccn3)[nH]c2cc1F [Example 25, 5-((2-chlorobenzyl)sulfonyl)-6-fluoro-2-(pyridin-2-yl)-1H-benzo[d]imidazole]
22 | 5.27 | Cc1cccc(C(=O)Nc2ccc(S(=O)(=O)Cc3ccccc3Cl)cc2)n1 [Example 32, N-(4-((2-chlorobenzyl)sulfonyl)phenyl)-6-methylpicolinamide]
23 | 5.82 | O=S(=O)(Cc1ccc(Cl)cc1Cl)c1cc2nc(-c3ccccn3)[nH]c2cc1Cl [Example 23, 6-chloro-5-((2,4-dichlorobenzyl)sulfonyl)-2-(pyridin-2-yl)-1H-benzo[d]imidazole]
24 | 7.26 | O=S(=O)(Cc1c(F)cccc1Cl)c1ccc2[nH]c(-c3ccccn3)nc2c1 [Example 22, 5-((2-chloro-6-fluorobenzyl)sulfonyl)-2-(pyridin-2-yl)-1H-benzo[d]imidazole]
25 | 5.62 | [O-][S+](Cc1ccccc1Cl)c1cc2nc(-c3ccccn3)[nH]c2cc1Cl (stereo not shown) [Example 17, 6-chloro-5-((2-chlorobenzyl)sulfinyl)-2-(pyridin-2-yl)-1H-benzo[d]imidazole]
26 | 6.35 | O=S(=O)(Cc1ccccc1Cl)c1ccc2[nH]c(-c3ncc(F)cc3F)nc2c1 [Example 14, 5-((2-chlorobenzyl)sulfonyl)-2-(3,5-difluoropyridin-2-yl)-1H-benzo[d]imidazole]
27 | 7.08 | O=S(=O)(Cc1ccc(Cl)cc1F)c1ccc2[nH]c(-c3ccccn3)nc2c1 [Example 19, 5-((4-chloro-2-fluorobenzyl)sulfonyl)-2-(pyridin-2-yl)-1H-benzo[d]imidazole]
28 | 6.71 | O=S(=O)(Cc1cccc(Cl)c1F)c1ccc2[nH]c(-c3ccccn3)nc2c1 [Example 21, 5-((3-chloro-2-fluorobenzyl)sulfonyl)-2-(pyridin-2-yl)-1H-benzo[d]imidazole]
29 | 6.95 | O=S(=O)(Cc1c(F)cccc1Cl)c1cc2nc(-c3ccccn3)[nH]c2cc1Cl [Example 24, 6-chloro-5-((2-chloro-6-fluorobenzyl)sulfonyl)-2-(pyridin-2-yl)-1H-benzo[d]imidazole]
30 | 6.57 | O=S(=O)(Cc1ccc(Cl)cc1F)c1ccc2[nH]c(-c3cccc[n+]3O)nc2c1 [Example 18, 2-(5-((4-chloro-2-fluorobenzyl)sulfonyl)-1H-benzo[d]imidazol-2-yl)-1-hydroxypyridin-1-ium]

Row | Structure (SMILES) | pEC50
31 | O=C(Nc1ccc(S(=O)(=O)Cc2ccccc2Cl)cc1)c1ccccn1 [Example 27, N-(4-((2-chlorobenzyl)sulfonyl)phenyl)picolinamide] | 6.63

Source: US8912336B2, “Aryl and heteroaryl sulfones as mGluR4 allosteric potentiators, compositions, and methods of treating neurological dysfunction” (Vanderbilt University, priority 2009, dated 2014)
